Test results reported in PMC12136037, “Type II kinase inhibitors that target Parkinson’s disease–associated LRRK2” (Science Advances, 2025).

Assays:
Experiment in all cases: DSF 100 kinase selectivity screen;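 note: compound tested at 20 µM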
Type in all cases: binding
[1] = molecular target: T1, ~100 representative kinases (Homo sapiens, UniProt Q9Y2H1); conditions: Protein STK38L; DSF; average of three replicates
T1 construct: Recombinant protein kinase domains with a concentration of 2 μM
Summary of the method: (§1)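 Each kinase domain, at 2 μM, is mixed with 20 μM test compound and SYPRO Orange in Hepes (20 mM, pH 7.5) with 500 mM NaCl. Temperature is then raised at 3°C/min and fluorescence-monitored unfolding yields the melting temperature change, ΔTm in degrees Celsius.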

[2] = molecular target: T2, ~100 representative kinases (Homo sapiens, UniProt Q13627); conditions: Protein DYRK1A; average of three replicates
T2 construct: Recombinant protein kinase domains with a concentration of 2 μM
Summary of the method: as §1

[3] = molecular target: T3, ~100 representative kinases (Homo sapiens, UniProt Q16566); conditions: Protein CAMK4; average of three replicates
T3 construct: Recombinant protein kinase domains with a concentration of 2 μM
T3 sequence (Q16566 1-473): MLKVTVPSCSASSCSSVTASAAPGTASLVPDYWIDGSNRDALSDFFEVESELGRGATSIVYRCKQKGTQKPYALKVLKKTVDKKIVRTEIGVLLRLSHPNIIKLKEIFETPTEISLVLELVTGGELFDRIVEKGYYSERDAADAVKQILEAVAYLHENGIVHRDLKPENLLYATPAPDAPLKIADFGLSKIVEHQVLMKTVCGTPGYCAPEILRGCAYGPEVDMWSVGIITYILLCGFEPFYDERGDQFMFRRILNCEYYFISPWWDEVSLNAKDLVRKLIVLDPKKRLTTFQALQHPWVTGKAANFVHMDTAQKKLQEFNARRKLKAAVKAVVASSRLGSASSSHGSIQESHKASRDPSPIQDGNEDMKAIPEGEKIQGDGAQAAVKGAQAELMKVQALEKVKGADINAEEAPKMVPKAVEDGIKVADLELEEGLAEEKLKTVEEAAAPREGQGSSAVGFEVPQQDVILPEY
Summary of the method: as §1

[4] = molecular target: T4, ~100 representative kinases (Homo sapiens, UniProt P54756); conditions: Protein EPHA5; average of three replicates
T4 construct: Recombinant protein kinase domains with a concentration of 2 μM
T4 sequence (P54756 25-1037): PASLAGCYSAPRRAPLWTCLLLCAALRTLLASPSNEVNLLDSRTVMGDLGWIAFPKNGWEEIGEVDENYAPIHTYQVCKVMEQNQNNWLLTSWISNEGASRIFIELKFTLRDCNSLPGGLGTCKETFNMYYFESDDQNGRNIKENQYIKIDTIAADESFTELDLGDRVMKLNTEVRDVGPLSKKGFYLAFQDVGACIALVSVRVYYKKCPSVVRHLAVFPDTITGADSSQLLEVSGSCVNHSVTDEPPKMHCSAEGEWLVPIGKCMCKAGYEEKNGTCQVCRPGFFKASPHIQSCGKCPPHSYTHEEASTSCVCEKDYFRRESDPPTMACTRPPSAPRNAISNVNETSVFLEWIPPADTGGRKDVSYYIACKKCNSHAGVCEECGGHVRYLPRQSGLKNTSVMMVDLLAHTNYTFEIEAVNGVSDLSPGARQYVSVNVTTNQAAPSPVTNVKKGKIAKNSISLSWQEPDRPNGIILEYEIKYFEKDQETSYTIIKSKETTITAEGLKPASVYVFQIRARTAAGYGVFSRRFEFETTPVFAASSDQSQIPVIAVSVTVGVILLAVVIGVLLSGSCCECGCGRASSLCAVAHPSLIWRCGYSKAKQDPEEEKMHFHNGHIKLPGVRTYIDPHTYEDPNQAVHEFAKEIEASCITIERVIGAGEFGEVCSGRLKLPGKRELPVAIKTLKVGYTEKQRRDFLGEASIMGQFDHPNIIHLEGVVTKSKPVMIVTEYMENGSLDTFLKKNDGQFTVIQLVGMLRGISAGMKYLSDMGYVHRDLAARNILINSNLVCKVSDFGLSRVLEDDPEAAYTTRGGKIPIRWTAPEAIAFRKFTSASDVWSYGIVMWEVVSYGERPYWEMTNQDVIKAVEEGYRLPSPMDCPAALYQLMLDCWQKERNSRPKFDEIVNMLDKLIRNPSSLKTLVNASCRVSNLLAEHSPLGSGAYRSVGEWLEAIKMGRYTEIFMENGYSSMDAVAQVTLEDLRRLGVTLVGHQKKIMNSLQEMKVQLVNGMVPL
Summary of the method: as §1

[5] = molecular target: T5, ~100 representative kinases (Homo sapiens, UniProt P17948); conditions: protein FLT1; average of three replicates
T5 construct: Recombinant protein kinase domains with a concentration of 2 μM
Summary of the method: as §1

[6] = molecular target: T6, ~100 representative kinases (Homo sapiens, UniProt P11309); conditions: protein PIM1; average of three replicates
T6 construct: Recombinant protein kinase domains with a concentration of 2 μM
Summary of the method: as §1

[7] = molecular target: T7, ~100 representative kinases (Homo sapiens, UniProt P00519); conditions: Protein ABL1; average of three replicates
T7 construct: Recombinant protein kinase domains with a concentration of 2 μM
T7 sequence (P00519 whole entry, the tested form may be a part): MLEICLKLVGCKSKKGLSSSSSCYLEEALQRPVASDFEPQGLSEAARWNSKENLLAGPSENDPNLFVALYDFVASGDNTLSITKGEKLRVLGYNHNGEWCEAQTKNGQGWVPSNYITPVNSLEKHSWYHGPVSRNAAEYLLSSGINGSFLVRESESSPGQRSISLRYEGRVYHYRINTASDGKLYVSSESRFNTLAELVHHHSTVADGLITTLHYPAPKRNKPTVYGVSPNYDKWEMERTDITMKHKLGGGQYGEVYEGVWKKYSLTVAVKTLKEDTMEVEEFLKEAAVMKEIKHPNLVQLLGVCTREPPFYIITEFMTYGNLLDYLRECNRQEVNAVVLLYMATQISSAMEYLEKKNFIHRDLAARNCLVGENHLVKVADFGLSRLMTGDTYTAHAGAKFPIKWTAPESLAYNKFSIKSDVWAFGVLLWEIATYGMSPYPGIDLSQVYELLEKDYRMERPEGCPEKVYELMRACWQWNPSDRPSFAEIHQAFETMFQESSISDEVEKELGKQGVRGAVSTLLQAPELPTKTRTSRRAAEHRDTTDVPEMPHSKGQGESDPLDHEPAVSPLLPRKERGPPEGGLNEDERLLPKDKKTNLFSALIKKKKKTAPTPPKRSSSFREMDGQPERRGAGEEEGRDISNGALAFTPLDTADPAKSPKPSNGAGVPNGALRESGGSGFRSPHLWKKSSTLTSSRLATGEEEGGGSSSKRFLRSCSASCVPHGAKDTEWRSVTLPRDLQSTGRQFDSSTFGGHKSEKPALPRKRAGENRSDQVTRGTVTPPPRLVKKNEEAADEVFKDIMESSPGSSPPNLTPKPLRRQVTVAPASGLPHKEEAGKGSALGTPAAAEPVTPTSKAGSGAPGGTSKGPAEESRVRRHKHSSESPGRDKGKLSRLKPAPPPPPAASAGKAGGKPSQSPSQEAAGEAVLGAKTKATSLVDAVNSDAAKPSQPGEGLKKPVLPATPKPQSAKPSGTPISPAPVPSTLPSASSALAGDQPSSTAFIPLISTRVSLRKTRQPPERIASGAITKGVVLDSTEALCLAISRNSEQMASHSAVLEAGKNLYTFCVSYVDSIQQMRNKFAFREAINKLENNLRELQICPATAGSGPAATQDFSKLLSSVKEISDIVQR
Summary of the method: as §1

[8] = molecular target: T8, ~100 representative kinases (Homo sapiens, UniProt P19784); conditions: Protein CK2A2; average of three replicates
T8 construct: Recombinant protein kinase domains with a concentration of 2 μM
T8 sequence (P19784 whole entry, the tested form may be a part): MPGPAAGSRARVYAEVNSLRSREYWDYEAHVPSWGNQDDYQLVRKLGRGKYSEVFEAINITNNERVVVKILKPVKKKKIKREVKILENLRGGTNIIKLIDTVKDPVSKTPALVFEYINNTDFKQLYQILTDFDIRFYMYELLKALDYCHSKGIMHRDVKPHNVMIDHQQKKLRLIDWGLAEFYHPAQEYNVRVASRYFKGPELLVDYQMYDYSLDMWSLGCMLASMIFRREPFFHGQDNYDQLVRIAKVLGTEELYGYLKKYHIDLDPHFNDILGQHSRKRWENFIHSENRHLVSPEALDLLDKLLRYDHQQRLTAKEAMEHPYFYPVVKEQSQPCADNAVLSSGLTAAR
Summary of the method: as §1

[9] = molecular target: T9, ~100 representative kinases (Homo sapiens, UniProt Q09013); conditions: Protein DMPK1; average of three replicates
T9 construct: Recombinant protein kinase domains with a concentration of 2 μM
T9 sequence (Q09013 1-629): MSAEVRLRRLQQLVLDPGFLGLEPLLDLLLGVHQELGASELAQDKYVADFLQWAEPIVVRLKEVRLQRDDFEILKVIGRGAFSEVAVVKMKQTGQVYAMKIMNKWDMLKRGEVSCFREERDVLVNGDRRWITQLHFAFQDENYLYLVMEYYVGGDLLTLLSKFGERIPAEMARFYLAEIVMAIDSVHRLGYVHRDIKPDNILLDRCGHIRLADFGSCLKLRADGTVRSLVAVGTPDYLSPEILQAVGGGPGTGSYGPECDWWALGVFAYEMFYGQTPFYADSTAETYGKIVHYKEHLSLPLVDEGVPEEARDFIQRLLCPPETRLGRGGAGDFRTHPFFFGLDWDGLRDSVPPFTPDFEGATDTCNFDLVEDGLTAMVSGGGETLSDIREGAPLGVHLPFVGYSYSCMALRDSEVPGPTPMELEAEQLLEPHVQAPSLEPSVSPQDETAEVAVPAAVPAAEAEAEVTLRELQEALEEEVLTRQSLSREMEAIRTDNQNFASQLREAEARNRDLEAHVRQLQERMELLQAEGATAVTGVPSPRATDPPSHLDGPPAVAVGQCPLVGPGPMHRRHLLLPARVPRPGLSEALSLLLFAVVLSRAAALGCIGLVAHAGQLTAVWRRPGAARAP
Summary of the method: as §1

[10] = molecular target: T10, ~100 representative kinases (Homo sapiens, UniProt O43293); conditions: Protein DAPK3; average of three replicates
T10 construct: Recombinant protein kinase domains with a concentration of 2 μM
Summary of the method: as §1

[11] = molecular target: T11, ~100 representative kinases (Homo sapiens, UniProt P49137); conditions: protein MAPKAPK2; average of three replicates
T11 construct: Recombinant protein kinase domains with a concentration of 2 μM
Summary of the method: as §1

[12] = molecular target: T12, ~100 representative kinases (Homo sapiens, UniProt O95747); conditions: protein OSR1; average of three replicates
T12 construct: Recombinant protein kinase domains with a concentration of 2 μM
T12 sequence (O95747 whole entry, the tested form may be a part): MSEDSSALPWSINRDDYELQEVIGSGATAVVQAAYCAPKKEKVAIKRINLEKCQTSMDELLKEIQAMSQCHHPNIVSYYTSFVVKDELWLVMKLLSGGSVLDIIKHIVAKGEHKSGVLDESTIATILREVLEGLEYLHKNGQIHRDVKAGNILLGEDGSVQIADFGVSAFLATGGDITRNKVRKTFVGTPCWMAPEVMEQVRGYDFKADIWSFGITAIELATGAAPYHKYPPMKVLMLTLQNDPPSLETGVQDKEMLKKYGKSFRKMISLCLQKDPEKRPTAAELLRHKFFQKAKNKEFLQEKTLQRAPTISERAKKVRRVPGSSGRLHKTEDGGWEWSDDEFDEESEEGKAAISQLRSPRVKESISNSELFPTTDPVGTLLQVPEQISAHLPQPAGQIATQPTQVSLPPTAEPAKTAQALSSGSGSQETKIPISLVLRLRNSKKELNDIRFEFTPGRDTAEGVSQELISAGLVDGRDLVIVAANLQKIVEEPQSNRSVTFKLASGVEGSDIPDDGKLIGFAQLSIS
Summary of the method: as §1

[13] = molecular target: T13, ~100 representative kinases (Homo sapiens, UniProt P16083); conditions: protein NQO2; average of three replicates
T13 construct: Recombinant protein kinase domains with a concentration of 2 μM
T13 sequence (P16083 1-231): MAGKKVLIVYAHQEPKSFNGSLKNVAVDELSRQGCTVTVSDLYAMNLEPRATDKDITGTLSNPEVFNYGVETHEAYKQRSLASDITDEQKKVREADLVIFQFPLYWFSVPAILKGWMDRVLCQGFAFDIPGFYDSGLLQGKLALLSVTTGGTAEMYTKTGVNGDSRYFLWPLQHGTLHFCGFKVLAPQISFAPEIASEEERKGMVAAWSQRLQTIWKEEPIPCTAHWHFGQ
Summary of the method: as §1

[14] = molecular target: T14, ~100 representative kinases (Homo sapiens, UniProt O96017); conditions: Protein CHEK2; average of three replicates
T14 construct: Recombinant protein kinase domains with a concentration of 2 μM
T14 sequence (O96017 whole entry, the tested form may be a part): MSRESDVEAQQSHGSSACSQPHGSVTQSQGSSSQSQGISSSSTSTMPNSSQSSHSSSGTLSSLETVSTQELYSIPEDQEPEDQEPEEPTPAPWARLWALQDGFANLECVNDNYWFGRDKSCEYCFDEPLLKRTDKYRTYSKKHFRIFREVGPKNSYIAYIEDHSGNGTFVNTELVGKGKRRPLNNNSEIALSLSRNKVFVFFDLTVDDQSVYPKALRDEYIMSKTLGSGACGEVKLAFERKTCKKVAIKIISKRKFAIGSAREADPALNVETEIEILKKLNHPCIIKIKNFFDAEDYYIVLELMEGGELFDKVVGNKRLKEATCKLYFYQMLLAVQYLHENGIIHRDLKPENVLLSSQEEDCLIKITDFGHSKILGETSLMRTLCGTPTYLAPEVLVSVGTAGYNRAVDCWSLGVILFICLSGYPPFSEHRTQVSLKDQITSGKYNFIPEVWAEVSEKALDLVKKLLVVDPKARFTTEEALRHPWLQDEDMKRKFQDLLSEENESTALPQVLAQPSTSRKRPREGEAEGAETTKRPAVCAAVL
Summary of the method: as §1

[15] = molecular target: T15, ~100 representative kinases (Homo sapiens, UniProt Q9H2G2); conditions: Protein SLK; DSF; average of three replicates
T15 construct: Recombinant protein kinase domains with a concentration of 2 μM
T15 sequence (Q9H2G2 whole entry, the tested form may be a part): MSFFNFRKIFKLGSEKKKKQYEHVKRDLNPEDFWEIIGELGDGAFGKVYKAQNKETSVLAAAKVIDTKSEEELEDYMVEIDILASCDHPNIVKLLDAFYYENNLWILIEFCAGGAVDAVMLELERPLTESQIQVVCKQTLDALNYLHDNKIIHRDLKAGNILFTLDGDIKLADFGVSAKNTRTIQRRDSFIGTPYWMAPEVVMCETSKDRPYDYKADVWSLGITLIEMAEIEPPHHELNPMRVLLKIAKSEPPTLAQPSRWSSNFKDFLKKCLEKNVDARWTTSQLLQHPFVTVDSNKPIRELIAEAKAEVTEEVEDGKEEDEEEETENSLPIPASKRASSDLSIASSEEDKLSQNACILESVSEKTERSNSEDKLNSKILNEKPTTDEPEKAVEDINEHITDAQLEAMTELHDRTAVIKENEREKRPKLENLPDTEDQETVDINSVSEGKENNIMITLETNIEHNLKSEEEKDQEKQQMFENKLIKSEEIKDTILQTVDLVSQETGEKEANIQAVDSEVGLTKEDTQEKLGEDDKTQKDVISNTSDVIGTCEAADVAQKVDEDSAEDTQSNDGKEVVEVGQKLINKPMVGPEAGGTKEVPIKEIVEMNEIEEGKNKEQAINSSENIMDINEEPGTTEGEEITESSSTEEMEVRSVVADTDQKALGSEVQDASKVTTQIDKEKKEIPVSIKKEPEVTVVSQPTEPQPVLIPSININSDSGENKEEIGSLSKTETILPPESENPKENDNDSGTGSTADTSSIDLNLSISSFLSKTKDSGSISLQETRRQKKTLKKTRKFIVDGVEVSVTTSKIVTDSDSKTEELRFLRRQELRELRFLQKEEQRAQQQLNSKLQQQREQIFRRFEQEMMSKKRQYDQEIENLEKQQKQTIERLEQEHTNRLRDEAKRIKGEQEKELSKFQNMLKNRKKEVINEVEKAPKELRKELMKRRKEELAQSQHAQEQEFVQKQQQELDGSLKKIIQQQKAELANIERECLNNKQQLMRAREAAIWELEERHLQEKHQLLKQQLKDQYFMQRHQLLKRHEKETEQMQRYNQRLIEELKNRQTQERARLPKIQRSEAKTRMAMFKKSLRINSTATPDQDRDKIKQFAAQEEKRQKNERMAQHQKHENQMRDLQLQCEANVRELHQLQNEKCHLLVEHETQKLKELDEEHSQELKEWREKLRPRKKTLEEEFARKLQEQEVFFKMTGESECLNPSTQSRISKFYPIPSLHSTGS
Summary of the method: as §1

Structure (SMILES) | dTm [1] [K] | dTm [2] [K] | dTm [3] [K] | dTm [4] [K] | dTm [5] [K] | dTm [6] [K] | dTm [7] [K] | dTm [8] [K] | dTm [9] [K] | dTm [10] [K] | dTm [11] [K] | dTm [12] [K] | dTm [13] [K] | dTm [14] [K] | dTm [15] [K]
Cc1cc(NC(=O)C2(C(=O)Nc3ccc(F)cc3)CC2)cc(-c2c[nH]c3ncnc(N4CCOCC4)c23)c1 [Compound 6] | 0.00 | -0.88 | 1.41 | 2.48 | 1.73 | 1.27 | 1.02 | 2.54 | 1.12 | 3.25 | 0.62 | -0.63 | -2.13 | 1.23 | 4.64
O=C(Nc1cccc(-c2c[nH]c3ncnc(N4CCOCC4)c23)c1)C1(C(=O)Nc2ccc(F)c(Br)c2F)CC1 [Compound 26] | -2.16 | 0.19 | 1.91 | 1.29 | 2.22 | 1.29 | 1.83 | 4.72 | -0.0242 | 3.21 | -1.06 | -0.0329 | -2.66 | 2.81 | 2.31
Cc1cc(F)ccc1NC(=O)C1(C(=O)Nc2cccc(-c3c[nH]c4ncnc(N5CCOCC5)c34)c2)CC1 [Compound 24] | -0.0467 | 0.41 | 0.42 | 0.97 | 4.10 | 0.58 | 1.15 | -0.63 | -1.04 | 2.09 | -0.55 | 0.69 | -2.19 | 2.66 | 3.45
CCSc1nc(NC)c2c(-c3cccc(NC(=O)Nc4cc(C(C)(C)C)nn4-c4ccc(C)cc4)c3)c[nH]c2n1 [Compound 32] | -0.75 | 0.57 | 0.28 | 0.04 | 1.15 | 1.50 | 2.07 | -0.62 | 0.38 | 1.05 | 0.11 | -0.46 | -0.0148 | 3.19 | 5.13
O=C(Nc1cccc(-c2c[nH]c3ncnc(N4CCOCC4)c23)c1)C1(C(=O)Nc2cccc3c2CCC3)CC1 [Compound 11] | 0.00 | 0.32 | 2.09 | -0.41 | 1.96 | 1.06 | 1.38 | 1.05 | -0.08 | 3.33 | -0.26 | 0.42 | -2.54 | 1.65 | 0.75
CCc1ccc(NC(=O)C2(C(=O)Nc3cccc(-c4c[nH]c5ncnc(N6CCOCC6)c45)c3)CC2)cc1 [Compound 15] | 0.73 | 3.55 | 2.51 | 2.15 | 0.00 | 1.02 | 1.94 | 1.24 | -1.02 | 3.77 | 0.05 | 0.69 | 0.0657 | 6.14 | 5.04
COc1ccc(NC(=O)C2(C(=O)Nc3cccc(-c4c[nH]c5ncnc(N6CCOCC6)c45)c3)CC2)cc1 [Compound 16] | -0.19 | 0.49 | -0.20 | -0.30 | 2.53 | -0.51 | 1.06 | 4.77 | -0.98 | 1.15 | -0.05 | 0.35 | -0.51 | 2.18 | 1.57
COc1cc(NC(=O)C2(C(=O)Nc3cccc(-c4c[nH]c5ncnc(N6CCOCC6)c45)c3)CC2)ccc1F [Compound 21] | -0.18 | 2.83 | 2.09 | 0.44 | 4.43 | 3.07 | 1.21 | 3.16 | -1.06 | 7.62 | -0.29 | 1.79 | -1.04 | 4.32 | 6.44
Cc1ccc(-n2nc(C(C)(C)C)cc2NC(=O)Nc2cccc(-c3c[nH]c4nc(Cl)nc(N5CCOCC5)c34)c2)cc1 [Compound 30] | -1.01 | -4.19 | -1.02 | 0.15 | 7.13 | 1.31 | 2.41 | -4.20 | -0.04 | 6.34 | -0.50 | -1.12 | 0.13 | 4.41 | 8.39
O=C(Nc1cccc(-c2c[nH]c3ncnc(N4CCOCC4)c23)c1)C1(C(=O)Nc2ccc(F)c(F)c2)CC1 [Compound 17] | 0.13 | 4.77 | 1.60 | 2.05 | 3.85 | 3.60 | 1.22 | 8.40 | -0.94 | 8.69 | -0.12 | 2.20 | -0.41 | 4.07 | 7.02
CC(C)(C)c1cc(NC(=O)Nc2cccc(-c3c[nH]c4ncnc(N5CCOCC5)c34)c2)n(-c2ccc3ncccc3c2)n1 [Compound 28] | 0.64 | 7.41 | 3.69 | 9.59 | 12.33 | 7.97 | 7.77 | -0.38 | -2.53 | 14.79 | 0.51 | 4.85 | 0.00214 | 10.72 | 13.85
